{"source": "patent US20140329833A1", "about": "“LYSINE DEMETHYLASE INHIBITORS FOR INFLAMMATORY DISEASES OR CONDITIONS” (ORYZON GENOMICS, S.A, priority 2011, published 2014)", "key": {"[1]": {"test_system": "dimethylated H3K4 in SH-SY5Y cells", "assay": "Western blot for H3K4 methylation in SH-SY5Y cells", "type": "cell-based", "details": "Dual-1 100 μM vs parnate 250 μM", "text": "FIG. 3 Compound Dual-1 Increases Histone Methylation.\nB-actin was used as a loading control."}, "[2]": {"target": "T1, LSD1 (Homo sapiens, UniProt O60341)", "details": "Ueda et al. (2009) J. Am. Chem. Soc. 131(48):17536-17537; cited from earlier work"}, "[3]": {"target": "T1, LSD1", "assay": "LSD1 demethylase inhibition assay (Amplex Red peroxide/peroxidase-coupled)", "type": "biochemical", "set-up": "purchased BPS Bioscience Inc", "details": "from the IC50 values for LSD1, MAO-A and MAO-B", "protocol": "Compounds for use in the methods of the invention can be identified by their ability to inhibit LSD1. The ability of compounds to inhibit LSD1 can be tested as follows. Human recombinant LSD1 protein was purchased from BPS Bioscience Inc. In order to monitor LSD1 enzymatic activity and/or its inhibition rate by the LSD1 inhibitor(s) of interest, di-methylated H3-K4 peptide (Millipore) was chosen as a substrate.\nWithin the experiment, each concentration of inhibitor was tested in duplicate. […] The enzymatic reactions were set up in a 50 mM sodium phosphate, pH 7.4 buffer. At the end of the incubation, Amplex® Red reagent and horseradish peroxidase (HPR) solution were added to the reaction according to the recommendations provided by the supplier (Invitrogen), and left to incubate for 30 extra minutes at room temperature in the dark. A 1 μM H2O2 solution was used as a control of the kit efficiency. […] Arbitrary units were used to measure level of H2O2 produced in the absence and/or in the presence of inhibitor.\nThe maximum demethylase activity of LSD1 was obtained in the absence of inhibitor and corrected for background fluorescence in the absence of LSD1. The Ki (IC50) of each inhibitor was estimated at half of the maximum activity."}}}
{"smiles": "NC(=O)CN[C@H]1C[C@@H]1c1ccc(OCc2ccccc2)cc1", "note": "(racemic) [Compound 1]", "values": [{"measurement": "potency at increasing global H3K4 methylation levels compared to tranylcypromine", "setting": "[1]", "value": "ten-fold or more potent"}, {"measurement": "IC50", "setting": "[2]", "value": 2500, "unit": "nM"}, {"measurement": "selectivity class (LSD1 vs MAO-A and MAO-B)", "setting": "[3]", "value": "dual LSD1/MAO-B selective inhibitors"}]}
